Source: US7498353B2, “Heterocyclic anti-viral compounds comprising metabolizable moieties and their uses” (priority 2005, dated 2009)
pIC50: −log10 of the molar value. Read-outs that look alike come from different tables or passages of the source.

Legend:
[1] = test system: HCV NS5A protein in 9-13 replicon cells; test: Quantitative Western blot replicon assay (HEPC_REPLICON-ICWESTERN); type: cell-based, Hepatitis C virus (HCV); conditions: Hepatitis C virus, read-out: HEPC_REPLICON-ICWESTERN Result Value (IC50)
Procedure: Alternatively, the inhibitory activity of the metabolically active agents of the prodrugs can be confirmed using a quantitative Western immunoblot assay utilizing antibodies specific for HCV non-structural proteins, such as NS3, NS4A NS5A and NS5B. In one embodiment of this assay, replicon cells are treated with varying concentrations of test prodrug to determine the concentration of the metabolically active agent of the test prodrug that yields a 50% reduction in the amount of a non-structural protein produced as compared to a control sample (IC50). A single non-structural protein may be quantified or multiple non-structural proteins may be quantified. Antibodies suitable for carrying out such immunoblot assays are available commercially (e.g., from BIODESIGN International, Saco, Me.).
Certain prodrugs of the invention, which may inhibit HCV translation or replication prior to metablism and/or are metabolized into active agents, were also tested for their ability to inhibit HCV replication using a quantitative Western blot analysis with antibodies specific for the HCV NS5A or other non-structural proteins. Actively dividing 9-13 replicon cells were seeded into 6-well plates at a density of 1×10^5 cells/well in a volume of 2 ml/well and incubated at 37° C. and 5% CO2 for 24 hours. Various concentrations of test prodrugs (in a volume of 10 ul) were added to the wells and the cells incubated for another 48 hours. Protein samples were prepared from the cultured cells, resolved on a SDS-PAGE gel and transferred to a nitrocellulose membrane. The membrane was blocked with 5% non-fat milk in PBS for 1 hour at room temperature. Primary antibody (anti NS5A antibody; BIODESIGN International, Saco, Me.) incubation was performed for 1 hour at room temperature, after which the membrane was washed 3 times (for 15 min per time) with PBST (PBS plus 0.1% Tween 20). Horseradish peroxidase conjugated secondary antibody incubation was performed for 1 hour at room temperature and the membrane was washed 3 times (for 15 min per time) with PBST. The membrane was then soaked in substrate solution (Pierce) and exposed to a film or quantified using an imager. In this assay, the amount of test prodrug that is believed to be transformed into an active agent under the given conditions that yielded a 50% reduction in the amount of NS5A protein translated as compared to a control sample (IC50) was determined.

[2] = test system: HCV replicon in 5-2 Luc replicon-comprising cells; test: HCV replicon assay, luciferase readout (HEPC_REPLICON-LUC); type: cell-based; conditions: Hepatitis C virus, read-out: HEPC_REPLICON-LUC Result Value (IC50)
Excerpt: In one embodiment, the inhibitory activity of the metabolically active agent of the prodrug can be confirmed in a replicon assay that assesses the ability of a test compound to block or inhibit HCV replication in replicon cells. One example of a suitable replicon assay is the liver cell-line Huh 7-based replicon assay described in Lohmann et al., 1999, Science 285:110-113. A specific example of this replicon assay which utilizes luciferase translation is provided in the Examples Section. In one embodiment of this assay, the amount of test prodrug that yields a 50% reduction in translation as compared to a control cell (IC50) may be determined.
The inhibitory activity of certain prodrugs of the invention, which may inhibit HCV translation or replication prior to metablism and/or are metabolized into active agents, was confirmed using an HCV replicon assay. The HCV replicon can include such features as the HCV 5′ untranslated region including the HCV IRES, the HCV 3′ untranslated region, selected HCV genes encoding HCV polypeptides, selectable markers, and a reporter gene such as luciferase, GFP, etc. In the assay, actively dividing 5-2 Luc replicon-comprising cells (obtained from Ralf Bartenschlager; see Lohmann et al., 1999, Science 285:110-113) were seeded at a density of between about 5,000 and 7,500 cells/well onto 96 well plates (about 90 μl of cells per well) and incubated at 37° C. and 5% CO2 for 24 hours. Then, the test prodrug (in a volume of about 10 μl) was added to the wells at various concentrations and the cells were incubated for an additional 24-48 hours before luciferase assay. The media was aspirated from each well and Bright-Glo (Promega, Madison, Wis.) luciferase assay reagents were added to each well according to the manufacturer's instructions. Briefly, the Bright-Glo reagent was diluted 1:1 with PBS and 100 μl of diluted reagent was added to each well. After 5 min of incubation at room temperature, luciferin emission was quantified with a luminometer. In this assay, the amount of test prodrug that yielded a 50% reduction in luciferase emission (IC50) was determined. This IC50 value may represent the antiviral activity of the prodrug itself, the activity of prodrug transformed into its active metabolized form, or a combination of the two.

[3] = Pharmacokinetic studies in portal/jugular vein cannulated rats after oral administration; type: in vivo, male Spraque-Dawley rats; conditions: for AUC: male, Sprague-Dawley, rat, 5 mg/kg oral dose of prodrug
Procedure: Pharamcokinetic studies were conducted in rats containing surgically implanted cannula in the portal and jugular veins. Blood samples were taken simultaneously from both cannula at various times after oral administration of the compounds. In the portal vein, the prodrugs are detected and, in some cases, the active compound, A-B—C—NHCOCHX2, has also been detected. The presence of active compound in the portal vein samples has been attributed to metabolism of the prodrug in transit through the gut wall. […] In the jugular samples, many, but not all, of the prodrugs have been detected in systemic circulation, depending on the hepatic extraction ratio of the prodrug.
Compounds were dissolved in a mixture of TPGS:PEG:PG (35%:60%:5%) and diluted with saline for oral administration. Typically, 6.5 mg of compound was dissolved in 1 ml of the organic mixture and added to 5.5 ml of saline. Animals were dosed with 5 ml/kg of this mixture to give a typical dose of 5 mg/kg. All animal studies were conducted in male Spraque-Dawley rats and the animals were fasted overnight prior to dose administration. Surgeries (to implant blood sampling cannula) were conducted at least two days prior to the study. Blood samples (100 μl) were collected using sodium heparin as anticoagulant and added to 300 μl of a mixture of acetate buffer (100 mM, pH=6.5):acetonitrile:ethanol:DMSO (2:1:1:2 v/v). Samples were centrifuged and the supernatant was analyzed by LC/MS/MS using the procedures outlined above. Standards were prepared similarly using fresh rat blood from naive animals.
No. 66 and Cpd. No. 64 (Table 3). […] Because the portal blood flows directly to the liver, the intact active parent compound may exert an anti-viral effect in the liver.

[4] = 9-13 replicon cells, 50% reduction in NS5A protein
[5] = 5-2 Luc replicon cells, 50% reduction in luciferase emission

SMILES	pIC50 [1, 4]	pIC50 [2, 5]	further results
NCC(=O)CCN(C(=O)C(Cl)Cl)c1ccnc(-c2cc(-c3c(Cl)cccc3Cl)no2)c1 [Cpd. No. 60, N-(4-Amino-3-oxobutyl)-2,2-dichloro-N-(2-(3-(2,6-dichlorophenyl)isoxazol-5-yl)pyridin-4-yl)acetamide]	4.70 to 6.00	> 6.00	
CC(C)C(NC(=O)C(NC(=O)OC(C)(C)C)C(C)C)C(=O)CCN(C(=O)C(Cl)Cl)c1ccnc(-c2cc(-c3c(Cl)cccc3Cl)no2)c1 (stereo not drawn) [Cpd. No. 47, tert-Butyl 1-(6-(2,2-Dichloro-N-(2-(3-(2,6-dichlorophenyl)isoxazol-5-yl)pyridin-4-yl)acetamido)-2-methyl-4-oxohexan-3-ylamino)-3-methyl-1-oxobutan-2-ylcarbamate]	> 6.00	> 6.00	
COCN(C(=O)C(Cl)Cl)c1cccc(-c2cc(-c3c(Cl)cccc3Cl)no2)c1 [Cpd. No. 6, 2,2-Dichloro-N-(3-(3-(2,6-dichlorophenyl)isoxazol-5-yl)phenyl)-N-(methoxymethyl)acetamide]	> 6.00	> 6.00	AUC ([3]; portal vein blood): 98.3 ng·h/mL
CC(C)C(NC(=O)CNC(=O)OC(C)(C)C)C(=O)CCN(C(=O)C(Cl)Cl)c1ccnc(-c2cc(-c3c(Cl)cccc3Cl)no2)c1 (stereo not drawn) [Cpd. No. 49, tert-Butyl 2-(6-(2,2-Dichloro-N-(2-(3-(2,6-dichlorophenyl)isoxazol-5-yl)pyridin-4-yl)acetamido)-2-methyl-4-oxohexan-3-ylamino)-2-oxoethylcarbamate]	> 6.00	> 6.00	
CC(C)C(NC(=O)C(CCC(=O)OC(C)(C)C)NC(=O)OC(C)(C)C)C(=O)CCN(C(=O)C(Cl)Cl)c1ccnc(-c2cc(-c3c(Cl)cccc3Cl)no2)c1 (stereo not drawn) [Cpd. No. 55, tert-Butyl 4-(tert-Butoxycarbonylamino)-5-(6-(2,2-dichloro-N-(2-(3-(2,6-dichlorophenyl)isoxazol-5-yl)pyridin-4-yl)acetamido)-2-methyl-4-oxohexan-3-ylamino)-5-oxopentanoate]	4.70 to 6.00	> 6.00	
CCC(C)C(N)C(=O)CCN(C(=O)C(Cl)Cl)c1ccnc(-c2cc(-c3c(Cl)cccc3Cl)no2)c1 (stereo not drawn) [Cpd. No. 59, N-(4-Amino-5-methyl-3-oxoheptyl)-2,2-dichloro-N-(2-(3-(2,6-dichlorophenyl)isoxazol-5-yl)pyridin-4-yl)acetamide]	> 6.00	> 6.00	
CC(C)C(NC(=O)C1CC(O)CN1C(=O)OC(C)(C)C)C(=O)CCN(C(=O)C(Cl)Cl)c1ccnc(-c2cc(-c3c(Cl)cccc3Cl)no2)c1 (stereo not drawn) [Cpd. No. 53, tert-Butyl 2-(6-(2,2-Dichloro-N-(2-(3-(2,6-dichlorophenyl)isoxazol-5-yl)pyridin-4-yl)acetamido)-2-methyl-4-oxohexan-3-ylcarbamoyl)-4-hydroxypyrrolidine-1-carboxylate]	> 6.00	> 6.00	
O=C(C(Cl)Cl)N(CCP(=O)(O)O)c1cccc(-c2cc(-c3c(Cl)cccc3Cl)no2)c1 [Cpd. No. 2, 2-(2,2-Dichloro-N-(3-(3-(2,6-dichlorophenyl)isoxazol-5-yl)phenyl)acetamido)ethylphosphonic acid]	< 4.70	< 4.70	
CC(C)[C@@H](NC(=O)OCN(C(=O)C(Cl)Cl)c1ccnc(-c2cc(-c3c(Cl)cccc3Cl)no2)c1)C(=O)OC(C)(C)C [Cpd. No. 58, (R)-tert-Butyl 2-(((2,2-Dichloro-N-(2-(3-(2,6-dichlorophenyl)isoxazol-5-yl)pyridin-4-yl)acetamido)methoxy)carbonylamino)-3-methylbutanoate]	4.70 to 6.00	< 4.70	
CCOP(=O)(CCN(C(=O)C(Cl)Cl)c1cccc(-c2cc(-c3c(Cl)cccc3Cl)no2)c1)OCC [Cpd. No. 1, Diethyl 2-(2,2-Dichloro-N-(3-(3-(2,6-dichlorophenyl)isoxazol-5-yl)phenyl)acetamido)ethylphosphonate]			pIC50 [1]: 4.70 to 6.00; AUC ([3]; in vivo): 176 ng·h/mL; pIC50 [2]: < 4.70
N[C@H](C(=O)NCCN(C(=O)C(Cl)Cl)c1cccc(-c2cc(-c3c(Cl)cccc3Cl)no2)c1)c1ccccc1 [Cpd. No. 18, (S)-N-(2-(2-Amino-2-phenylacetamido)ethyl)-2,2-dichloro-N-(3-(3-(2,6-dichlorophenyl)isoxazol-5-yl)phenyl)acetamide]	< 4.70		AUC ([3]; portal vein blood): 627 ng·h/mL
CC(C)C(N)C(=O)CCN(C(=O)C(Cl)Cl)c1ccnc(-c2cc(-c3c(Cl)cccc3Cl)no2)c1 (stereo not drawn) [Cpd. No. 3, N-(4-Amino-5-methyl-3-oxohexyl)-2,2-dichloro-N-(2-(3-(2,6-dichlorophenyl)isoxazol-5-yl)pyridin-4-yl)acetamide]	> 6.00	> 6.00	
COCN(C(=O)C(Cl)Cl)c1ccnc(-c2cc(-c3c(Cl)cccc3Cl)no2)c1 [Cpd. No. 7, 2,2-Dichloro-N-(2-(3-(2,6-dichlorophenyl)isoxazol-5-yl)pyridin-4-yl)-N-(methoxymethyl)acetamide]	> 6.00	4.70 to 6.00	
O=C(Nc1ccnc(-c2cc(-c3c(Cl)cccc3Cl)no2)c1)C(Cl)Cl [Cpd. No. 64]			Active parent compound concentrations versus dose ([3]; oral, portal vein): increase in a linear fashion with dose; Absorption and hydrolysis of the orally administered parent compound ([3]; oral, portal vein plasma): well absorbed but is extensively hydrolyzed to the inactive metabolite
